In PubChem BioAssay (NCI):
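GI50 is the concentration that inhibits growth by half. TGI denotes the concentration required for complete inhibition of growth.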

How the values were obtained:
Assay in all cases: NCI anticancer screen, dose series, 384-well format
786-0 renal = system: 786-0 renal
ACHN renal = system: ACHN renal
CAKI-1 renal = system: CAKI-1 renal
COLO 205 colon = system: COLO 205 colon
HCC-2998 colon = system: HCC-2998 colon
HOP-62 NSCLC = system: HOP-62 NSCLC
HOP-92 NSCLC = system: HOP-92 NSCLC
HS 578T breast = system: HS 578T breast
HT29 colon = system: HT29 colon
IGROV1 ovarian = system: IGROV1 ovarian
KM12 colon = system: KM12 colon
LOX IMVI melanoma = system: LOX IMVI melanoma
M14 melanoma = system: M14 melanoma
MALME-3M melanoma = system: MALME-3M melanoma
MCF7 breast = system: MCF7 breast
MDA-MB-231 breast = system: MDA-MB-231 breast
MOLT-4 leukemia = system: MOLT-4 leukemia
NCI-H23 lung = system: NCI-H23 lung
NCI-H322M lung = system: NCI-H322M lung
NCI/ADR-RES ovarian = system: NCI/ADR-RES ovarian
OVCAR-4 ovarian = system: OVCAR-4 ovarian
OVCAR-5 ovarian = system: OVCAR-5 ovarian
OVCAR-8 ovarian = system: OVCAR-8 ovarian
RXF 393 renal = system: RXF 393 renal
SF-268 CNS = system: SF-268 CNS
SF-295 CNS = system: SF-295 CNS
SK-MEL-28 melanoma = system: SK-MEL-28 melanoma
SNB-75 CNS = system: SNB-75 CNS
SW-620 colon = system: SW-620 colon
TK-10 renal = system: TK-10 renal
UACC-62 melanoma = system: UACC-62 melanoma
UO-31 renal = system: UO-31 renal
A498 renal = system: A498 renal
A549 NSCLC = system: A549 NSCLC
BT-549 breast = system: BT-549 breast
DU-145 prostate = system: DU-145 prostate
EKVX NSCLC = system: EKVX NSCLC
HCT-116 colon = system: HCT-116 colon
HCT-15 colon = system: HCT-15 colon
HL-60(TB) leukemia = system: HL-60(TB) leukemia
MDA-MB-435 melanoma = system: MDA-MB-435 melanoma
MDA-MB-468 breast = system: MDA-MB-468 breast
NCI-H226 lung = system: NCI-H226 lung
NCI-H460 NSCLC = system: NCI-H460 NSCLC
NCI-H522 lung = system: NCI-H522 lung
OVCAR-3 ovarian = system: OVCAR-3 ovarian
PC-3 prostate = system: PC-3 prostate
RPMI-8226 leukemia = system: RPMI-8226 leukemia
SF-539 CNS = system: SF-539 CNS
SK-MEL-5 melanoma = system: SK-MEL-5 melanoma
SK-OV-3 ovarian = system: SK-OV-3 ovarian
SN12C renal = system: SN12C renal
SNB-19 CNS = system: SNB-19 CNS
SR leukemia = system: SR leukemia
T-47D breast = system: T-47D breast
U251 glioblastoma = system: U251 glioblastoma
UACC-257 melanoma = system: UACC-257 melanoma

`Cc1ccc(C(=O)Nc2ccc(Oc3cc4cnn(C)c4cc3-c3cn[nH]c3)c(F)c2)c(=O)n1-c1ccc(F)cc1` showed a GI50 (786-0 renal) greater than 100 µM, a TGI (786-0 renal) greater than 100 µM and a GI50 (ACHN renal) of 6.44 µM. It also gave a TGI (ACHN renal) greater than 100 µM, a GI50 (CAKI-1 renal) of 5.86 µM and a TGI (CAKI-1 renal) greater than 100 µM. The GI50 (COLO 205 colon) was 4.91 µM, the TGI (COLO 205 colon) was greater than 100 µM and the GI50 (HCC-2998 colon) was greater than 100 µM. The TGI (HCC-2998 colon) was greater than 100 µM, the GI50 (HOP-62 NSCLC) was 3.81 µM and the TGI (HOP-62 NSCLC) was greater than 100 µM. The GI50 (HOP-92 NSCLC) was greater than 100 µM, the TGI (HOP-92 NSCLC) was greater than 100 µM and the GI50 (HS 578T breast) was 10.6 µM. The TGI (HS 578T breast) was greater than 100 µM, the GI50 (HT29 colon) was 3.03 µM and the TGI (HT29 colon) was greater than 100 µM. The GI50 (IGROV1 ovarian) was 5.27 µM, the TGI (IGROV1 ovarian) was greater than 100 µM and the GI50 (KM12 colon) was 0.0165 µM. It also gave a TGI (KM12 colon) greater than 100 µM, a GI50 (LOX IMVI melanoma) of 4.05 µM and a TGI (LOX IMVI melanoma) greater than 100 µM. For the same compound, the GI50 (M14 melanoma) was 2.56 µM, the TGI (M14 melanoma) was greater than 100 µM and the GI50 (MALME-3M melanoma) was 5.29 µM. For the same compound, the TGI (MALME-3M melanoma) was greater than 100 µM, the GI50 (MCF7 breast) was 5.56 µM and the TGI (MCF7 breast) was greater than 100 µM. For the same compound, the GI50 (MDA-MB-231 breast) was greater than 100 µM, the TGI (MDA-MB-231 breast) was greater than 100 µM and the GI50 (MOLT-4 leukemia) was 1.08 µM. For the same compound, the TGI (MOLT-4 leukemia) was 19.8 µM, the GI50 (NCI-H23 lung) was 10.4 µM and the TGI (NCI-H23 lung) was greater than 100 µM. It also gave a GI50 (NCI-H322M lung) greater than 100 µM, a TGI (NCI-H322M lung) greater than 100 µM and a GI50 (NCI/ADR-RES ovarian) greater than 100 µM. The TGI (NCI/ADR-RES ovarian) was greater than 100 µM, the GI50 (OVCAR-4 ovarian) was greater than 100 µM and the TGI (OVCAR-4 ovarian) was greater than 100 µM. For the same compound, the GI50 (OVCAR-5 ovarian) was greater than 100 µM, the TGI (OVCAR-5 ovarian) was greater than 100 µM and the GI50 (OVCAR-8 ovarian) was greater than 100 µM. The TGI (OVCAR-8 ovarian) was greater than 100 µM, the GI50 (RXF 393 renal) was 2.57 µM and the TGI (RXF 393 renal) was greater than 100 µM. It also gave a GI50 (SF-268 CNS) of 0.698 µM, a TGI (SF-268 CNS) of 7.36 µM and a GI50 (SF-295 CNS) of 2.37 µM. For the same compound, the TGI (SF-295 CNS) was greater than 100 µM, the GI50 (SK-MEL-28 melanoma) was 7.28 µM and the TGI (SK-MEL-28 melanoma) was greater than 100 µM. It also gave a GI50 (SNB-75 CNS) of 6.22 µM, a TGI (SNB-75 CNS) greater than 100 µM and a GI50 (SW-620 colon) greater than 100 µM. It also gave a TGI (SW-620 colon) greater than 100 µM, a GI50 (TK-10 renal) greater than 100 µM and a TGI (TK-10 renal) greater than 100 µM. The GI50 (UACC-62 melanoma) was 2.42 µM, the TGI (UACC-62 melanoma) was greater than 100 µM and the GI50 (UO-31 renal) was greater than 100 µM. For the same compound, the TGI (UO-31 renal) was greater than 100 µM.

`CO[C@H]1C(=O)[C@]2(C)[C@@H](OC)C[C@H]3OC[C@@]3(OC(C)=O)[C@H]2[C@H](OC(=O)c2ccccc2)[C@]2(O)C[C@H](OC(=O)[C@H](O)[C@@H](NC(=O)OC(C)(C)C)c3ccccc3)C(C)=C1C2(C)C` gave a GI50 (786-0 renal) of less than 0.01 µM, a TGI (786-0 renal) greater than 78.8 µM and a GI50 (A498 renal) of less than 0.01 µM. For the same compound, the TGI (A498 renal) was 44.2 µM, the GI50 (A549 NSCLC) was less than 0.01 µM and the TGI (A549 NSCLC) was greater than 55.1 µM. For the same compound, the TGI (ACHN renal) was greater than 100 µM, the GI50 (BT-549 breast) was less than 0.01 µM and the TGI (BT-549 breast) was less than 0.01 µM. It also gave a GI50 (CAKI-1 renal) of less than 0.0131 µM, a TGI (CAKI-1 renal) greater than 69 µM and a GI50 (COLO 205 colon) of less than 0.01 µM. For the same compound, the TGI (COLO 205 colon) was less than 0.01 µM, the GI50 (DU-145 prostate) was less than 0.01 µM and the TGI (DU-145 prostate) was less than 0.01 µM. For the same compound, the GI50 (EKVX NSCLC) was less than 0.01 µM, the TGI (EKVX NSCLC) was 39.8 µM and the GI50 (HCC-2998 colon) was less than 0.01 µM. The TGI (HCC-2998 colon) was less than 0.01 µM, the GI50 (HCT-116 colon) was less than 0.01 µM and the TGI (HCT-116 colon) was greater than 100 µM. The GI50 (HCT-15 colon) was less than 0.01 µM, the TGI (HCT-15 colon) was greater than 100 µM and the GI50 (HL-60(TB) leukemia) was less than 0.01 µM. For the same compound, the TGI (HL-60(TB) leukemia) was less than 0.01 µM, the GI50 (HOP-62 NSCLC) was less than 0.01 µM and the TGI (HOP-62 NSCLC) was greater than 100 µM. For the same compound, the GI50 (HOP-92 NSCLC) was 22.2 µM, the TGI (HOP-92 NSCLC) was greater than 100 µM and the GI50 (HS 578T breast) was less than 0.01 µM. For the same compound, the TGI (HS 578T breast) was less than 0.01 µM, the GI50 (HT29 colon) was less than 0.01 µM and the TGI (HT29 colon) was less than 0.01 µM. For the same compound, the GI50 (IGROV1 ovarian) was less than 0.01 µM, the TGI (IGROV1 ovarian) was greater than 100 µM and the GI50 (KM12 colon) was less than 0.01 µM. The TGI (KM12 colon) was greater than 100 µM, the GI50 (LOX IMVI melanoma) was less than 0.0407 µM and the TGI (LOX IMVI melanoma) was 22.6 µM. The GI50 (M14 melanoma) was less than 0.01 µM, the TGI (M14 melanoma) was greater than 100 µM and the TGI (MALME-3M melanoma) was greater than 49.2 µM. The GI50 (MCF7 breast) was less than 0.01 µM, the TGI (MCF7 breast) was greater than 61.5 µM and the GI50 (MDA-MB-435 melanoma) was less than 0.01 µM. For the same compound, the TGI (MDA-MB-435 melanoma) was less than 0.01 µM, the GI50 (MDA-MB-468 breast) was less than 0.01 µM and the TGI (MDA-MB-468 breast) was less than 0.01 µM. For the same compound, the GI50 (MOLT-4 leukemia) was less than 0.01 µM, the TGI (MOLT-4 leukemia) was less than 0.01 µM and the GI50 (NCI-H226 lung) was less than 0.01 µM. For the same compound, the TGI (NCI-H226 lung) was 18.5 µM, the GI50 (NCI-H23 lung) was less than 0.01 µM and the TGI (NCI-H23 lung) was greater than 100 µM. The TGI (NCI-H322M lung) was greater than 100 µM, the GI50 (NCI-H460 NSCLC) was less than 0.01 µM and the TGI (NCI-H460 NSCLC) was less than 0.01 µM. The GI50 (NCI-H522 lung) was less than 0.01 µM, the TGI (NCI-H522 lung) was less than 0.01 µM and the GI50 (NCI/ADR-RES ovarian) was 0.0189 µM. For the same compound, the TGI (NCI/ADR-RES ovarian) was 0.0548 µM, the GI50 (OVCAR-3 ovarian) was less than 0.01 µM and the GI50 (OVCAR-4 ovarian) was less than 0.01 µM. It also gave a TGI (OVCAR-4 ovarian) of 31.3 µM, a GI50 (OVCAR-5 ovarian) of less than 0.01 µM and a TGI (OVCAR-5 ovarian) greater than 100 µM. It also gave a GI50 (PC-3 prostate) of less than 0.01 µM, a TGI (PC-3 prostate) greater than 80.5 µM and a GI50 (RPMI-8226 leukemia) of less than 0.01 µM. For the same compound, the TGI (RPMI-8226 leukemia) was less than 0.01 µM, the GI50 (RXF 393 renal) was less than 0.01 µM and the TGI (RXF 393 renal) was less than 0.01 µM. For the same compound, the TGI (SF-268 CNS) was greater than 62.6 µM, the GI50 (SF-295 CNS) was less than 0.01 µM and the GI50 (SF-539 CNS) was less than 0.01 µM. It also gave a GI50 (SK-MEL-28 melanoma) greater than 100 µM, a TGI (SK-MEL-28 melanoma) greater than 100 µM and a GI50 (SK-MEL-5 melanoma) of less than 0.01 µM. The TGI (SK-MEL-5 melanoma) was less than 0.01 µM, the GI50 (SK-OV-3 ovarian) was less than 0.01 µM and the TGI (SK-OV-3 ovarian) was greater than 100 µM. It also gave a GI50 (SN12C renal) of less than 0.01 µM, a TGI (SN12C renal) greater than 100 µM and a GI50 (SNB-19 CNS) of less than 0.01 µM. For the same compound, the TGI (SNB-19 CNS) was greater than 100 µM, the GI50 (SNB-75 CNS) was less than 0.01 µM and the GI50 (SR leukemia) was less than 0.01 µM. It also gave a TGI (SR leukemia) of less than 0.01 µM, a GI50 (T-47D breast) of less than 0.01 µM and a TGI (T-47D breast) of 89 µM. For the same compound, the GI50 (TK-10 renal) was less than 0.01 µM, the TGI (TK-10 renal) was greater than 100 µM and the GI50 (U251 glioblastoma) was less than 0.01 µM. For the same compound, the TGI (U251 glioblastoma) was 21.2 µM, the GI50 (UACC-257 melanoma) was 32.7 µM and the TGI (UACC-257 melanoma) was greater than 100 µM. For the same compound, the GI50 (UACC-62 melanoma) was less than 0.01 µM, the TGI (UACC-62 melanoma) was greater than 49.7 µM and the GI50 (UO-31 renal) was less than 0.0128 µM. For the same compound, the TGI (UO-31 renal) was greater than 100 µM.
